# Results: PubChem BioAssay (NCI)
# Where “and” joins values, the source holds several entries; their conditions need not be identical. Equal values may be shown once.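 Five concentrations, 48 hours, 96-well plates. The concentration for 50% growth inhibition is given as GI50. TGI denotes the concentration required for complete inhibition of growth.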
# System: MDA-MB-468 breast
# Assay: NCI tumour cell line growth inhibition, 48 h
Compound,GI50,TGI
Cn1c(=O)n(-c2ccc(C(C)(C)C#N)cc2)c2c3cc(-c4cnc5ccccc5c4)ccc3ncc21,11.8 nM and 5.31 nM and < 10.5 nM,0.0505 µM and 0.0285 µM and 0.0642 µM
Cc1ccc(NCSc2ccc(Cl)cc2)cc1,2680 nM,8.05 µM
COc1ccccc1Cn1cc2c(c1)-c1oncc1CC2,217 nM,0.697 µM
COC(=O)c1cc(Nc2ccc(O)c3c2C(=O)c2c([N+](=O)[O-])ccc(O)c2C3=O)cc(C(=O)OC)c1,16500 nM,98.5 µM
Cc1ccc([P+](Cc2ccc([N+](=O)[O-])cc2)(c2ccc(C)cc2)c2ccc(C)cc2)cc1,660 nM,5.8 µM
CCOC(=O)c1[nH]c2c(c1C)-c1[nH]c(=O)c(S(=O)(=O)c3ccccc3)cc1SC2,54000 nM,> 100 µM
CC1Cc2c(N(C)C)ncnc2N(C)c2ccc(Cl)cc21 (stereo not given),2660 nM,67.7 µM
COc1cccc(-c2nn(-c3ccccc3)cc2-c2ccnc(NCCNC(=O)Nc3ccc(Cl)c(Cl)c3)c2)c1,1700 nM,4.54 µM
COc1ccc2nc3ccc(OC)cc3c(SCCCN)c2c1,1400 nM,2.94 µM
C/C(=C(/c1ccc(O)cc1)c1ccc(OCCN2CCCC2)cc1)c1ccccc1,1840 nM,4.47 µM
Oc1ccc(-c2nnc(SCc3ccc(O)c4ncccc34)o2)cc1,2000 nM,8.06 µM
CN1C(=O)c2cc(Cl)nc3c(NC(=O)c4cccc(Cl)c4)c(Cl)c(NC(=O)c4cccc(Cl)c4)c1c23,1990 nM,6.05 µM
COC(=O)[C@H](Cc1ccccc1)NC(=O)c1csc([C@@H](C[C@H](C(C)C)N(C)C(=O)[C@@H](NC(=O)[C@H]2CCCCN2C)C2CC2)OC(C)=O)n1,44.1 nM,> 25 µM
CCCC/C(=N\N=C(N)N)c1ccc(F)cc1,590 nM,5.81 µM
CCN(CC)CCC(=O)Nc1ccc(Cn2nnc3c2C(=O)c2nnn(Cc4ccc(NC(=O)CCN(CC)CC)cc4)c2C3=O)cc1,170 nM,0.374 µM
Cc1nnc([S-])s1.[Au+].c1ccc([PH+](c2ccccc2)c2ccccc2)cc1,1270 nM,2.86 µM
O=C1OC(c2ccc(O)cc2)(c2ccc(O)cc2)c2cccc3cccc1c23,4060 nM,21.7 µM
CCCCCCCCCCCCCCCC[N+]1(CC)CCCC1,184 nM,0.799 µM
COc1cc[nH]c1/C=C1\C(=O)Nc2ccc(F)c(C#CC3(O)CCOCC3)c21,710 nM,2.9 µM
COc1ccc(/C=C\c2cc(OC)c(OC)c(OC)c2)cc1OP(=O)(O)O,54.3 nM,> 100 µM
N#CC1c2ccccc2-c2ccccc2N1C(=O)c1ccccc1 (stereo not given),383 nM,> 26.1 µM
Nc1ncnc2occ(-c3ccc(NC(=O)Nc4cc(C(F)(F)F)cc(C(F)(F)F)c4)cc3)c12,2750 nM,7.81 µM
COc1ccccc1C(=O)c1cnc(NC2CCN(S(C)(=O)=O)CC2)nc1N,7790 nM,> 25 µM
Oc1ccc(CSc2nnc(-c3cnccn3)o2)c2cccnc12,639 nM,7.8 µM
O=C1c2cccnc2C(=O)c2c1c(C(=O)OCCCN1CCOCC1)c1ccccn21,1390 nM,7.1 µM
O=C1C=C(Nc2cccc(Br)c2)c2ccccc2C1=O,17600 nM,83.8 µM
CC[C@]12C=CCN3CC[C@]4(C(=C(C(=O)OC)C1)Nc1cc(O)ccc14)[C@@H]32,9380 nM,44 µM
COc1cc(C2C3=C(COC3=O)N(CCO)c3cc4c(cc32)CCC4)cc(OC)c1O (stereo not given),89.1 nM,
